Several values for one entry are separate records, joined by “and”; a condition that tells them apart may be missing. Equal values may be shown once. Read-outs that look alike come from different tables or passages of the source.
Key:
[1] = tested on: PC3 cells; assay: Bone metastasis after intracardiac injection of PC3 cells in male nude mice; type: in vivo, mouse; settings: for Outgrowth of macroscopic bone lesions (bioluminescent imaging): data not shown
Procedure: (§1) For localized tumor growth assay, cells were resuspended in 100 μl PBS with Matrigel in 1:1 ratio and subcutaneously injected into both rear flanks. The volume of the s.c. xenograft was calculated as V=L×W^2/2, where L and W stand for tumor length and width, respectively. For experimental metastasis assays, cells were resuspended in 100 μl 1×PBS and intracardially injected into the left ventricle with a 26 G tuberculin syringe. For bone colonization, RM1 cells were resuspended 100 μl 1×PBS and injected into the intra-femoral artery. Metastatic burden was detected through non-invasive bioluminescence imaging of experimental animals using an IVIS Spectrum.
(§2) To investigate the effect of drug treatment, compounds or antibodies were delivered twice every week or every three days through i.p. injection except BLZ945, which was delivered orally. Bioluminescence signal was measured using the ROI tool in Living Image 4.4 software (PerkinElmer).
(§3) For bioluminescent imaging, mice were anesthetized and injected with 1.5 mg of D-luciferin retro-orbitally at the indicated times. Animals were imaged in an IVIS® 100 chamber within 5 min after D-luciferin injection, and data were recorded using LIVING IMAGE® software (Xenogen). To measure bone colonization after intracardiac injection, photon flux was calculated by using the ROI tool in the LIVING IMAGE® software. Bone metastases were further confirmed by X-Ray imaging. Mice were anesthetized with ketamine (100 mg/kg) and xylazine (10 mg/kg), placed on digital X ray Film (Scan X) and exposed at 25 kV for 15 s using a Faxitron instrument (Model MX-20; Faxitron Corp. Buffalo, Ill.).
(§4) The tissue sections were deparaffinized with EZPrep buffer (Ventana Medical Systems), antigen retrieval was performed with CC1 buffer (Ventana Medical Systems). Sections were blocked for 30 minutes with Background Buster solution (Innovex), followed by avidin-biotin blocking for 8 minutes (Ventana Medical Systems) (except for slides stained with CD4 and NKp46 antibodies). Sections were incubated with anti-RNF2, anti-BMI1, anti-Ki67, anti-Cleaved Caspase 3, anti-CD11b, anti-CD68, anti-CD8, anti-CD31, anti-B220, anti-FoxP3, anti-CD4, or anti-NKp46 for 5 hours, followed by 60 minutes incubation with biotinylated horse anti-rabbit IgG at 1:200 dilution (for Ki67, Cleaved Caspase 3, CD11b and CD8) or biotinylated goat anti-rat IgG at 1:200 dilution (for CD31, B220 and FoxP3) or biotinylated horse anti-goat IgG at 1:200 dilution (for CD4 and NKp46). The detection was performed with DAB detection kit (Ventana Medical Systems) according to manufacturer instruction. Slides were counterstained with hematoxylin and coverslipped with PERMOUNT™ (Fisher Scientific).

[2] = tested on: PC3 cells; assay: Cell growth under standard culture conditions; type: cell-based, human; settings: concentrations up to 1 μM, data not shown
Procedure: Control and RNF2-silenced PC3 cells were plated at 1×10^3 per well in 96 well plates for 24 hours. After 24 hours, cells were incubated in 0.5 mg/ml MTT (Invitrogen) for 2 h at 37° C. MTT crystals were dissolved in DMSO and absorbance was measured in a plate reader at 540 nm.
The candidate library was provided by the Organic Synthesis Core Facility from MSKCC. The testing concentration of candidate compounds on PC3 cells was 1 μM. RNF2 target gene expression change was used as a readout for the first round screen. Cell viability, tumor sphere formation assay and histone modification change were then used to further confirm the activity of the candidate compound.

[3] = tested on: RM1 cells; assay: Metastasis in C57BL/6 mice injected with RM1 cells; type: in vivo, mouse
Procedure: as §1, §2
For bioluminescent imaging, mice were anesthetized and injected with 1.5 mg of D-luciferin retro-orbitally at the indicated times. Animals were imaged in an IVIS® 100 chamber within 5 min after D-luciferin injection, and data were recorded using LIVING IMAGE® software (Xenogen). To measure bone colonization after intracardiac injection, photon flux was calculated by using the ROI tool in the LIVING IMAGE® software. […]

[4] = target: T1, PRC1 (Homo sapiens, UniProt Q99496); assay: Inhibition of H2Aub (monoubiquitylation of histone H2A) in PC3 cells; type: cell-based
T1 construct: PC3 cells were exposed to drugs for the indicated hours; endogenous in cells; host or cells: PC3 cells
T1 sequence (Q99496 2-336 limits assumed): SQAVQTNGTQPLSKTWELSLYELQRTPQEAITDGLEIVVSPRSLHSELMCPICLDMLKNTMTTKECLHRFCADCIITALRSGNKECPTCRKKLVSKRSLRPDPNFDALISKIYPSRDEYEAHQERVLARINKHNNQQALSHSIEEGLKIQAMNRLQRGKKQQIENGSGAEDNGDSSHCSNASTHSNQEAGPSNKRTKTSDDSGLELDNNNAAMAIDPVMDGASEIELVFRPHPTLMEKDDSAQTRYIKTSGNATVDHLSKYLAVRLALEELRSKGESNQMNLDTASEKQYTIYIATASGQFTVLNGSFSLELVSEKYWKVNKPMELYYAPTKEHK
Procedure: (§5) For immunoblotting, cells were washed with PBS and lysed in RIPA buffer (50 mM Tris-HCl pH 7.4, 150 mM NaCl, 1 mM EDTA, 1% Triton X-100, 1% sodium deoxycholate, and 0.1% SDS) supplemented with protease inhibitors (Calbiochem) and phosphatase inhibitors (PhosSTOP, Roche Life Science). Protein concentrations were measured by using the DC Protein Assay. Total RNA was extracted using the RNeasy Mini kit coupled with RNase-free DNase set (Qiagen) and reverse transcribed with SuperScript III First-Strand Synthesis SuperMix (Invitrogen). cDNA corresponding to approximately 10 ng of starting RNA was used for one reaction. Q-PCR was performed with Taqman Gene Expression Assay (Applied Biosystems). All quantifications were normalized to endogenous GAPDH.
PC3 cells were exposed to drugs for the indicated hours, then harvested using […] EDTA in PBS, and washed once with cold PBS. Nuclear extracts were prepared and histones were extracted using 0.4N sulfuric acid. H2A or ubH2A was measured using the indicated antibodies.

[5] = tested on: PC3 cells; assay: Gene expression changes and pathway analysis compared with RNF2 silencing; type: cell-based, human; settings: compared with 2 and RNF2 silencing; data not shown
Procedure: Data were analyzed in Partek. Total RNAs were isolated from PC3 cells. Libraries were prepared suing the standard methodology from Illumina. Generated libraries were run on a HiSeq2500 system. Raw reads were quality-checked and subsequently mapped to the human genome (hg19) using Tophat2 (2.2.4) using default settings (Langmead and Salzberg, 2012). Differential gene expression was analyzed using the DESeq2 (1.8.1) package in R using default settings (Love et al., 2014). Gene set enrichment analysis (GSEA) (Subramanian et al., 2005) was performed on a pre-ranked gene list that generated based on the gene expression changes between the RNF2 knockdown and control cells. […] Heatmap analysis was performed to show the gene expression patterns between the RNF2 knockdown and control repeats, using heatmap3 R package with ward2 as distance function. Gene expressions in the heatmap were transformed in logarithm scale and normalized accordingly.

[6] = target: T2, RNF2-PRC1 complex (Homo sapiens, UniProt Q99496); assay: In vitro ubiquitination assay (cell-free system); type: biochemical; settings: data not shown
T2 construct: RNF2-PRC1 complex was immunoprecipitated from one 15 cm plate of PC3 cells; endogenous in cells; host or cells: PC3 cells (immunoprecipitate)
T2 sequence (Q99496 2-336 limits assumed): T1 sequence (Q99496 2-336 limits assumed)
Procedure: RNF2-PRC1 complex was immunoprecipitated from one 15 cm plate of PC3 cells. After extensive washing, the complex was pre-incubated with drugs at 4° C. for 30 minutes. UBCH5c, E1, were from Boston Biochem. Reactions were performed in 30 μl of ubiquitilation buffer (50 mM Tris, pH 7.5, 2.5 mM MgCl2, 0.5 mM DTT) containing ubiquitin-activating enzyme 100 ng E1, 200 ng UBCH5c, 10 μg ubiquitin, 0.2 mM ATP, 1 μg H2A, and the indicated PNF2-PRC1 complex. After incubated at 37° C. for 60 min, the reactions were then stopped by the addition of Laemmli sample buffer, and proteins were resolved by SDS-PAGE and immunoblotted using H2A antibody.

[7] = tested on: PC3 cells; assay: Tumor sphere assay, PC3 cells; type: cell-based, human; settings: for IC50: Homo sapiens, PC-3, read-out: Inhibition of sphere formation ability normalized to control groups, IC50
Procedure: (§6) Single cell suspensions of LNCaP, DU145, PC3, PC3M or RM1 cells (1,000 cells/ml) were plated on ultra-low attachment plates and cultured in serum-free PrEGM (Lonza) supplemented with 1:50 B27, 20 ng/ml bFGF and 40 ng/ml EGF for 10 days. Tumor spheres were visualized under phase contrast microscope, photographed, and counted. For serial passage, tumor spheres were collected using 70-μm cell strainers and dissociated with ACCUTASE® for 30 min at 37° C. to obtain single-cell suspensions.

[8] = tested on: Pten^pc−/−Smad4^pc−/− cells; assay: Multi-organ metastasis in FVB/NJ mice inoculated intracardially with Pten pc-/- Smad4 pc-/- cells; type: in vivo, mouse; settings: for Numbers of TAMs and Tregs in bone lesions: on-treatment staining of bone lesions
Procedure: as §1, §2, §3, §4
For iNOS/CD68 or Arg1/CD68 staining, first, slides were incubated with anti-iNOS or anti-Arg1 for 5 hours, followed by 60 minutes incubation with biotinylated goat anti-rabbit IgG at 1:200 dilution. The detection was performed with Streptavidin-HRP D (part of DABMap kit, Ventana Medical Systems), followed by incubation with Tyramide Alexa Fluor 488 prepared according to manufacturer instruction with predetermined dilutions. Next, sections were incubated with anti-CD68 for 5 hours, followed by 60 minutes incubation with biotinylated goat anti-rabbit IgG at 1:200 dilution. The detection was performed with Streptavidin-HRP D (part of DABMap kit, Ventana Medical Systems), followed by incubation with Tyramide Alexa CF 594 prepared according to manufacturer instruction with predetermined dilutions. After staining slides were counterstained with DAPI for 10 min and coverslipped with MOWIOL®.
At the end point in vivo experiment, blood and bone marrow cells were collected from each mouse and treated with Red Blood Cell lysis buffer for 5 minutes. Cells were then washed once with RPMI supplemented 2% FBS, stained with indicated antibodies and analyzed by FACS.

[9] = tested on: RNF2 target genes (CCL2, CXCL1, LGR5, NTS, ATF3); assay: Quantitative RT-PCR of RNF2 target genes in PC3 or RM1 cells; type: cell-based; settings: 0.5 and 1.0 μM; compared with RNF2 silencing
Procedure: as §5

[10] = tested on: RM1 cells; assay: Tumor sphere assay, RM1 cells; type: cell-based, mouse; settings: data not shown
Procedure: as §6

[11] = PC3 cells, titration experiments
[12] = PC3 cells, read-out: Inhibition of H2Aub normalized to control groups, IC50
[13] = bone metastatic sites, Pten/Smad4 and RM1 models

CNC(=O)c1cc(Oc2ccc3nc(N[C@@H]4CCCC[C@H]4O)sc3c2)ccn1 [BLZ945, reference compound]
Outgrowth of macroscopic bone lesions (bioluminescent imaging) [1]: effectively inhibit the outgrowth of macroscopic bone lesions

Nc1ccc(CCN2C(=O)c3c(F)c(F)c(F)c(F)c3C2=O)cc1 [Compound 1]
Inhibition of cell growth [2]: did not inhibit cell growth
Outgrowth of bone, brain and liver metastases ([3]; C57BL/6 mice, data not shown): inhibited the outgrowth of bone, brain and liver metastases
FACS analysis of leukocytes from peripheral blood ([3]; treated mice): significant decrease of macrophages and increase of T cells and NK cells
Inhibition of H2AUb, fold more efficient as compared to 2 [4, 11]: > 7.5 fold
IC50 [4, 12]: 470 nM
Inhibition of PRC1 activity relative to 3 (PTC209) ([4]; data not shown): more effectively as compared to 3
IC50 ([4]; inhibitor of RNF2, read-out: Apparent IC50 in cells and on target): ~470 nM and ~500 nM
Gene expression changes in cancer-relevant pathways [5]: changes larger than those caused by 2 and by RNF2 silencing
Formation of bone metastases ([1]; 25 mg/kg, treatment from day 7, 2×/week): prevented formation of bone metastases
Expansion of bone macrometastases ([1]; 25 mg/kg, treatment from day 21, 2 weeks of treatment): significant suppression of their expansion
Nuclear H2AUb levels in bone sections (IHC) ([1]; bone sections of treated mice): substantially decreases
Secretion of CCL2 in the tumor microenvironment (IHC) ([1]; bone sections of treated mice): substantially decreases
Inhibition of RNF2-mediated H2AUb [6]: inhibited RNF2-mediated H2AUb in a dose-dependent fashion
IC50 ([7]; PC3 cells): 130 nM
Inhibition of sphere formation, fold more efficient as compared to 2 [7, 11]: > 7.5 fold
Multi-organ metastasis (bioluminescent imaging) ([8]; 1 at 10 mg/kg, DCIT = anti-CTLA4 + anti-PD-1): only inhibited this process
Number of M1-like macrophages [8, 13]: increases the number of M1-like macrophages
Percentage of M2-like TAMs (CD68 and Arg1/iNOS double staining) [8, 13]: dramatically decreases the percentage of M2-like TAMs
Numbers of TAMs and Tregs in bone lesions ([8]; Pten/Smad4 and RM1 models): reduces the numbers of TAMs and Tregs
Numbers of MDSCs and TAMs (FACS) ([8]; peripheral blood and bone marrow): reduces the numbers of MDSCs and TAMs
Downregulation or upregulation of key PRC1 targets (RT-qPCR) [9]: as effectively as silencing of RNF2
Inhibition of tumor sphere [10]: inhibited tumor sphere to a similar extent

O=C1C(=Cc2cccnc2)C(=O)c2ccccc21 [Compound 2, 2-(pyridin-3-ylmethylene)-1H-indene-1,3(2H)-dione, reference compound]
Concentration at which PRC1 activity was inhibited, assessed by monoubiquitylation of histone H2A [4]: 25 µM
IC50 [4, 12]: 3520 nM
IC50 ([7]; PC3 cells): 1050 nM
Concentration at which growth of oncospheres was inhibited ([7]; inhibited only at this concentration): 25 µM
Number of M1-like macrophages [8, 13]: increases the number of M1-like antigen presentation-competent macrophages
Numbers of TAMs and Tregs in bone lesions ([8]; Pten/Smad4 and RM1 models): suppresses the recruitment of total TAMs

Cc1ccc2c(c1)C1(CCN(CCc3nc(-c4ccccc4)oc3C)CC1)OC(=O)N2 [RS504393, reference compound]
Outgrowth of macroscopic bone lesions (bioluminescent imaging) [1]: effectively inhibit the outgrowth of macroscopic bone lesions
